Legend:
Format in all cases: cell-based
Trpv4_v1 = biological target: T1, Trpv4_v1 (Sparus aurata, UniProt A0A671Y4W2); test: two-electrode voltage clamp in Xenopus oocytes, constitutive current at -85 mV
T1 construct: gene trpv4; full-length cDNA from testis in pT7Ts; cRNA expressed alone in Xenopus laevis oocytes; calculated monomer 99 kDa
T1 sequence (A0A671Y4W2 1-876): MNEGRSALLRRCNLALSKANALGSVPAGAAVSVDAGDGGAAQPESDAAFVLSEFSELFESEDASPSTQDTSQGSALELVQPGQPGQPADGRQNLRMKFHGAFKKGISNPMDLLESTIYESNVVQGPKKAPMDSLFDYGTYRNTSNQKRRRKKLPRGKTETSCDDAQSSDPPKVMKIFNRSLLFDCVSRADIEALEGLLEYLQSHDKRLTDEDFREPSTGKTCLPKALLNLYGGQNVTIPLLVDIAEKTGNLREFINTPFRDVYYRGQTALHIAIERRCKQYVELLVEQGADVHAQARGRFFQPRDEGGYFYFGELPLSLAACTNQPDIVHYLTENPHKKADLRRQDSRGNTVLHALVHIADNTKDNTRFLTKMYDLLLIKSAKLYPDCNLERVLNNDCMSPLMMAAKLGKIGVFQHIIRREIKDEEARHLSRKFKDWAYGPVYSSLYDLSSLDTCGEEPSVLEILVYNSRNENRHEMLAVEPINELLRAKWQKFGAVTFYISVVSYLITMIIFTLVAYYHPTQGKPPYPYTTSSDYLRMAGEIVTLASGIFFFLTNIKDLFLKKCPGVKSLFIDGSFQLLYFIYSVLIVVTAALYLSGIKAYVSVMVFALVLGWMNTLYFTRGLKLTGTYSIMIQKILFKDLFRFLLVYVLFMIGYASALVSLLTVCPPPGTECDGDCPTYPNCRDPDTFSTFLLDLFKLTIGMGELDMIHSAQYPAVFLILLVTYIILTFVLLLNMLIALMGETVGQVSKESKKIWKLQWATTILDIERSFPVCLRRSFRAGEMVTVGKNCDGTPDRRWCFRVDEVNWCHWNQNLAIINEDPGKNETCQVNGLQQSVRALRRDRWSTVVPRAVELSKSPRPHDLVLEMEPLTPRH

Trpv4_v10 = biological target: T2, Trpv4_v10 (Sparus aurata, UniProt A0A671Y517); test: as above
T2 construct: gene trpv4; synthesized full-length splice-variant cDNA in pT7Ts; cRNA expressed alone in Xenopus laevis oocytes; divergent N-terminus
T2 sequence (A0A671Y517 1-877): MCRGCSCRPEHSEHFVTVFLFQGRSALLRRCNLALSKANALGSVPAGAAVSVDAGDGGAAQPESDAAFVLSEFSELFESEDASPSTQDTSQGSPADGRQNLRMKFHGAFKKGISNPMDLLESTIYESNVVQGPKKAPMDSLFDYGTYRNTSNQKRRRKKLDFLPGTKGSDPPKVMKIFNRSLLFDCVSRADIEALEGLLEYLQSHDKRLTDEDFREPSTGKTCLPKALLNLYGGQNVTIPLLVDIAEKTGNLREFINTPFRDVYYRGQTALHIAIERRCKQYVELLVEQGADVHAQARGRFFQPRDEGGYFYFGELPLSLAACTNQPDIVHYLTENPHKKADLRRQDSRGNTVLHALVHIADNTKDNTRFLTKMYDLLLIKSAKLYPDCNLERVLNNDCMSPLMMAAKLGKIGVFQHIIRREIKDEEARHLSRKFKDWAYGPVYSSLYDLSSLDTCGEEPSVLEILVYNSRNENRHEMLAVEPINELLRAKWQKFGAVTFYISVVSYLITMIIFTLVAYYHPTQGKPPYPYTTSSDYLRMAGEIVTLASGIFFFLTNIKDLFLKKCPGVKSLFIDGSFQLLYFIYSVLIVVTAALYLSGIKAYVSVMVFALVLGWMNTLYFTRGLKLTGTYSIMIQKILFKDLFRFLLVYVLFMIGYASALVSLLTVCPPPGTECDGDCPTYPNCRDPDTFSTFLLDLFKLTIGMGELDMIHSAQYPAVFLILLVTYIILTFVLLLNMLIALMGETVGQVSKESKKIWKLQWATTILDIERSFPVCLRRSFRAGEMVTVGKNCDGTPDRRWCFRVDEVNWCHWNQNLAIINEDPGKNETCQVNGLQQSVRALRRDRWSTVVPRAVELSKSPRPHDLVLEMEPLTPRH

Aqp4a-M43 = biological target: T3, Aqp4a-M43 (Sparus aurata, UniProt A0A678R2D9); test: oocyte swelling assay (osmotic water permeability Lp); conditions: 5 min pretreatment, hyposmotic challenge -100 mOsm, pH 7.4
T3 construct: gene Aqp4; short isoform starting at Met-43, 31 kDa; cRNA expressed in Xenopus laevis oocytes

[1] = 5 min exposure, isosmotic 220 mOsm, pH 7.4, room temperature

T3 sequence (A0A678R2D9 entry or part of it): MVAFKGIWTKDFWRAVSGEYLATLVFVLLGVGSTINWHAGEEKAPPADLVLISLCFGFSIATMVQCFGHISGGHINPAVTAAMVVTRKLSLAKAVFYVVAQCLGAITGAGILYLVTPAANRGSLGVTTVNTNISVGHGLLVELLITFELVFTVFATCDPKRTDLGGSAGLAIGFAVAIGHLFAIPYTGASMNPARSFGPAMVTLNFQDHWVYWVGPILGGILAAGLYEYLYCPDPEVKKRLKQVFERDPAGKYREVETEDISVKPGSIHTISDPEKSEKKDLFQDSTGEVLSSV

SMILES: N.N.N.N.N.N.N.N.N.N.N.N.N.N.[Cl-].[Cl-].[Cl-].[Cl-].[Cl-].[Cl-].[O-2].[O-2].[Ru+3].[Ru+3].[Ru+4] [ruthenium red]
- % inhibition at 10 μM (Trpv4_v1; [1]): ~ 28%
- % inhibition at 10 μM (Trpv4_v10; [1]): ~ 5%

SMILES: O=C(Nc1nncs1)c1cccnc1 [TGN-020, 2-(Nicotinamide)-1,3,4-thiadiazole]
- % reduction of Lp at 20 μM (Aqp4a-M43): ~ 82%

SMILES: Cc1c(C(=O)Nc2cccc(C(F)(F)F)c2)cc(-c2ccccc2)n1CCCN1CCOCC1 [HC-067047]
- inhibition at 10 µM (Trpv4_v1): ~8%
- inhibition at 10 µM (Trpv4_v10): ~8%

SMILES: CC(C)NCCN(C(C)C)S(=O)(=O)c1ccc(Cl)cc1Cl [RN-1734]
- inhibition at 100 µM (Trpv4_v1): ~40%
- inhibition at 100 µM (Trpv4_v10): ~9%

— article PMC11335209, “Aqp4a and Trpv4 mediate regulatory cell volume increase for swimming maintenance of marine fish spermatozoa” (Cellular and Molecular Life Sciences: CMLS, 2024)
